From PubChem BioAssay (NCI)
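Test compounds were applied to cells in 96-well plates for 48 hours at 5 doses. GI50 = concentration required for 50% inhibition of growth. TGI marks complete inhibition of growth.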

Tests used:
Experiment in all cases: NCI anticancer screen, dose series, 48 h
A549 NSCLC = tested on: A549 NSCLC
HOP-92 NSCLC = tested on: HOP-92 NSCLC
K-562 leukemia = tested on: K-562 leukemia
KM12 colon = tested on: KM12 colon
MDA-MB-231 breast = tested on: MDA-MB-231 breast
OVCAR-4 ovarian = tested on: OVCAR-4 ovarian
SF-268 CNS = tested on: SF-268 CNS
SK-MEL-2 melanoma = tested on: SK-MEL-2 melanoma
SW-620 colon = tested on: SW-620 colon
U251 CNS = tested on: U251 CNS

SMILES	GI50 (A549 NSCLC) [µM]	TGI (A549 NSCLC) [µM]	GI50 (HOP-92 NSCLC) [µM]	TGI (HOP-92 NSCLC) [µM]	GI50 (K-562 leukemia) [µM]	TGI (K-562 leukemia) [µM]	GI50 (KM12 colon) [µM]	TGI (KM12 colon) [µM]	GI50 (MDA-MB-231 breast) [µM]	TGI (MDA-MB-231 breast) [µM]	GI50 (OVCAR-4 ovarian) [µM]	TGI (OVCAR-4 ovarian) [µM]	GI50 (SF-268 CNS) [µM]	TGI (SF-268 CNS) [µM]	GI50 (SK-MEL-2 melanoma) [µM]	TGI (SK-MEL-2 melanoma) [µM]	GI50 (SW-620 colon) [µM]	TGI (SW-620 colon) [µM]	GI50 (U251 CNS) [µM]	TGI (U251 CNS) [µM]
CCCc1cc(=O)n2c(C(=O)Nc3cccc(C(=O)OCC)c3)c(C(=O)Nc3ccc(F)cc3)sc2n1	4.32	24.1	1.33	7.99	60.3	> 140	42.5	> 140	1.6	7.2	3.27	20.9	26.6	128	6.83	27.6	12	> 140	3.55	48.6
COc1ccc2cc(C(=O)/C=C/c3ccc(N(C)C)cc3)ccc2c1	60.3	> 100	> 100	> 100	> 100	> 100	> 100	> 100	40.2	> 100	81.7	> 100	42.6	> 100	61.6	> 100	87.3	> 100	58.9	> 100
COc1cc2c(cc1Cc1cccc(Cl)c1F)c(=O)c(C(=O)O)cn2[C@@H](CO)C(C)C	3.11	12.2	1.45	6.34	3.84	16.3	4.03	13.1	3.84	19.7	3.7	16.6	5.42	19.1	3.98	13.8	3.57	15	3.17	12.2
CCNC(=O)Nc1ccc(Oc2ccnc3ccc4c(ccn4C)c23)cc1	44.1	> 100	45.5	> 100	47.4	> 100	37.7	> 100	26.3	62.8	54.2	> 100	50.7	> 100	45.8	> 100	> 100	> 100	20.6	44.7
CCN1C(=O)N(CC)C2C1NN=c1s/c(=C\c3ccco3)c(=O)n12 (stereo not given)	0.801	> 100	0.349	> 100	0.311	> 100	0.394	> 100	0.961	41.2	4.24	> 100	0.791	> 100	0.84	> 100	0.439	> 100	0.576	> 100
N=C(N)SCc1c2ccccc2c(CSC(=N)N)c2ccccc12	3.61	30.9	2.8	19.9	3.51	17.9	10.3	23.4	12	45.1	11.7	35.5	4.32	26	18	41.3	3.75	19.7	3.13	26.7
CCCCCCn1c(-c2ccc(C(=O)O/N=C(\N)c3ccc4ccccc4c3)cc2)nc(-c2ccccc2)c1-c1ccccc1	2.55	> 100	1.92	7.77	2.42	> 100	> 100	> 100	17.8	> 100	> 100	> 100	6.71	> 100	25.6	> 93.2	> 100	> 100	7.64	> 100
N#Cc1c(N2CCOCC2)nc(=S)[nH]c1-c1ccccc1	21.3	> 100	3.94	> 100	52	> 100	35	> 100	7.86	> 100	65.7	> 100	33.5	> 100	4.5	> 100	74.2	> 100	60.1	> 100
COCCNc1ccc2c3c(cccc13)C(=O)N(CCN(C)C)C2=O	6.35	> 25	10.2	> 25	4.66	11.5	8.65	> 25	12.9	> 25	11.8	> 25	8.95	> 25	8.24	> 25	6.69	> 25	8.71	> 25
